We go through seven molecules from publication PMC10498667 (Chemical Science, 2023).

Where two headings read alike, the source gives them in different places.

A short description of one data set: MTT cytotoxicity assay. Type of data set: cell-based. To be noted: human. As for the experimental part: Flavonoid 6 was synthesized following previously reported procedures with modifications.[66–68] […] It should be noted that cell viability was calculated, relative to that of the cells containing an equivalent amount of DMSO.
Cell viability was determined by the MTT assay [MTT = 3-(4,5-dimethylthiazol-2-yl)-2,5-diphenyltetrazolium bromide]. Cells were seeded in a 96-well plate (15,000 cells/100 µL) and treated with the samples {[flavonoid] = 5, 10, 25, 50, and 100 µM (1% v/v DMSO)}. After 24 h incubation, 5Y cells were washed with phosphate buffered saline (PBS; GIBCO). MTT [5 mg/mL in PBS (pH 7.4, GIBCO); 25 µL] was added to each well and the plate was incubated for 4 h at 37 °C. The formazan produced by cells was solubilized using an acidic solution of DMF (pH 4.5, 50% v/v, aq) and sodium dodecyl sulfate (SDS; 20% w/v) overnight at room temperature in the dark. Absorbance was measured at 600 nm by a microplate reader (Molecular Devices). Cell viability, relative to that of the cells containing an equivalent amount of DMSO, was calculated.
The measurements were conducted in triplicate. […]
A general note: Tetrazolium dyes change colour on reduction, which living cells bring about.

The target of another data set is T1, Aβ42 (Homo sapiens, UniProt P05067).
T1 construct: purchased Peptide Institute, Inc. (Osaka, Japan)
The experiment in a line: Aβ42 aggregation inhibition experiments (gel/western blot, TEM). The format is biochemical. The following applies: flavonoid 50 μM, 24 h. As for the experimental part:
To verify whether a series of nine flavonoids can modulate the aggregation of Aβ with and without metal ions, the molecular weight (MW) distribution and morphology of the resultant Aβ species were determined by gel electrophoresis with western blotting (gel/western blot) using an anti-Aβ antibody (6E10) and transmission electron microscopy (TEM), respectively. Two types of experiments were carried out employing two major Aβ isoforms, i.e., Aβ42 and Aβ40:[25] (i) inhibition studies to identify the effect of 1–5, 1a, 1b, 4a, and 4b on the formation of Aβ aggregates; (ii) disaggregation studies to evaluate if the flavonoids with reactivities towards Aβ aggregation in inhibition studies can disassemble preformed Aβ aggregates or modulate their further aggregation, as illustrated in Fig. 4 and S5–S9. ^† Moreover, the solutions containing the flavonoids and Cu(II) were probed by electronic absorption (Abs) spectroscopy to monitor their metal binding. […] As expected, no Abs change of 1a and 4a composed of methoxy groups on the A ring was detected by addition of Cu(II). […]
Ab Aggregation Experiments. Ab was dissolved in ammonium hydroxide [1% w/w NH4OH (aq)] and the resulting solution was aliquoted, lyophilized overnight, and stored at –80 °C. A stock solution of Ab was then prepared by dissolving the lyophilized peptide with NH4OH (1% w/w, aq; 10 µL) and diluting with ddH2O. All Ab samples were prepared following previously reported procedures.21,22 The concentration of the peptide solution was determined by measuring its […]
solution (20 mM HEPES, pH 7.4, 150 mM NaCl) was used for preparing Ab samples. For the inhibition studies, flavonoids (final concentration, 50 µM; 1% v/v DMSO) were added to the samples of Ab (25 µM) in the absence and presence of CuCl2 or ZnCl2 (25 µM) followed by incubation for 24 h at 37 °C with constant agitation. For the disaggregation studies, Ab (25 µM) was incubated with and without CuCl2 or ZnCl2 (25 µM) for 24 h at 37 °C with constant agitation to generate preformed Ab aggregates. The resultant Ab aggregates were then treated with flavonoids (50 µM) and incubated for additional 24 h with constant agitation. For the additional disaggregation experiments, preformed Ab42 aggregates (25 µM) or Ab42 seeds (10% v/v) with or without metal ions (25 µM for CuCl2 and ZnCl2) were incubated with flavonoids (50 µM) for 24 h with constant agitation. The resultant Ab aggregates were then treated with freshly prepared Ab42 […]
(25 µM) and incubated for additional 24 h with constant agitation.
Gel/Western Blot. The resultant Ab species from the aggregation experiments were analyzed by gel/Western blot using an anti-Ab antibody (6E10, Covance, Princeton, NJ, USA).21,22 Each sample (10 µL) was separated on a 10–20% tricine gel (Invitrogen). Following separation, the proteins were transferred onto nitrocellulose membranes and blocked with bovine serum albumin (BSA, 3% w/v; Sigma-Aldrich) in Tris-buffered saline (TBS) containing 0.1% v/v Tween-20 (Sigma-Aldrich) (TBS-T) for 4 h at room temperature or overnight at 4 °C. The membranes were incubated with 6E10 (1:2,000) in the solution of BSA (2% w/v in TBS-T) for 4 h at room temperature. […] A homemade ECL kit21–23 was used to visualize gel/Western blots on a ChemiDoc MP Imaging System (Bio-Rad).
TEM. Samples for TEM were prepared following previously reported methods.22,24 Glow-discharged grids (Formvar/Carbon 300-mesh; Electron Microscopy Sciences, Hatfield, PA, USA) were treated with Ab samples (25 µM; 7.5 µL) for 2 min at room temperature. Excess sample was removed using filter paper followed by washing with ddH2O (3x). Each grid incubated with uranyl […]
(A western blot detects proteins with antibodies after separation by electrophoresis.)

[1] abbreviates: human neuroblastoma 5Y cells, 100 μM flavonoid, 24 h, 5Y cells, relative to DMSO, read-out: cell viability.
Where [2] appears, read: Zn(II)–Aβ42, Aβ 25 μM, Zn(II) 25 μM.
Where [3] appears, read: 100 μM flavonoid, 24 h, 5Y cells, relative to DMSO, read-out: cell viability.
[4] abbreviates: Cu(II)–Aβ42, Aβ 25 μM, Cu(II) 25 μM.

T1 sequence (P05067 672-713 limits assumed): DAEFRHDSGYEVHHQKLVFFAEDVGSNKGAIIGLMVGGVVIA

`O=c1c(-c2ccccc2)coc2cc(O)c(O)c(O)c12` [4b, 5,6,7-trihydroxyisoflavone]: in “MTT cytotoxicity assay” (setting [1]), the viability – broadly, the share of living cells, or the viability signal relative to a control – at 24 h, 100 μM is around 70%. Moreover, the “morphology of resultant aggregates (TEM)” value on Aβ42 (Cu(II)–Aβ42) was “chopped and thin fibrils”; on Aβ42 (Zn(II)–Aβ42), “small amorphous aggregates”; on Aβ42 (metal-free Aβ42), “smaller fibrils and less structured aggregates”. Further, the “MW distribution of resultant species (gel/western blot)” value (“MW distribution … (gel/western blot)” for short) on Aβ42 (setting [2]) was “smearing bands at ca. 25–240 kDa”; at Aβ42 (metal-free Aβ42 25 μM, 37 °C), “discernably reduced the signal intensity of the bands”.

For the molecule `O=c1cc(-c2ccccc2)oc2cc(O)cc(O)c12` [compound 1, chrysin], the viability at 24 h, 100 μM in “MTT cytotoxicity assay” (setting [3]) is around 30%. In addition, the “morphology of resultant aggregates (TEM)” value on Aβ42 (Cu(II)–Aβ42) and at Aβ42 (Zn(II)–Aβ42) was “did not indicate any noticeable morphological changes” each time. At Aβ42 (setting [2]), the “MW distribution … (gel/western blot)” value was “a significant change in the MW distribution was not indicated”.

In “MTT cytotoxicity assay”, `O=c1cc(-c2ccccc2)oc2cc(O)c(O)cc12` [compound 2, 6,7-dihydroxyflavone] gave a viability at 24 h, 100 μM of around 60%. In addition, the “morphology of resultant aggregates (TEM)” value at Aβ42 (Cu(II)–Aβ42) and at Aβ42 (Zn(II)–Aβ42) was “did not indicate any noticeable morphological changes” each time. Also, the “MW distribution … (gel/western blot)” value at Aβ42 (setting [2]) is “a significant change in the MW distribution was not indicated”.

Take `O=c1cc(-c2ccccc2)oc2ccc(O)c(O)c12` [compound 3, 5,6-dihydroxyflavone]: the viability at 24 h, 100 μM in “MTT cytotoxicity assay” (setting [1]) is around 50%. In addition, the “MW distribution … (gel/western blot)” value at Aβ42 (setting [4]) is “more intense smearing”; on Aβ42 (setting [2]) it was “increased signal intensity between ca. 25–75 kDa”. The “morphology of resultant aggregates (TEM)” value at Aβ42 (Cu(II)–Aβ42) is “A mixture of amorphous and small fibrillary aggregates”; on Aβ42 (Zn(II)–Aβ42), “small amorphous aggregates”.

With `O=c1cc(-c2ccccc2)oc2cc(O)c(O)c(O)c12` [compound 4, baicalein], the viability at 24 h, 100 μM in “MTT cytotoxicity assay” (setting [3]) was around 70%. Also, the “MW distribution … (gel/western blot)” value on Aβ42 (setting [4]) is reported as “enhanced level of dodecameric or larger Aβ42 aggregates”; on Aβ42 (setting [2]) it was “smearing bands at ca. 25–240 kDa”; at Aβ42 (metal-free Aβ42 25 μM, 37 °C) it was “discernably reduced the signal intensity of the bands”. For the same molecule, the “morphology of resultant aggregates (TEM)” value was “chopped and thin fibrils” on Aβ42 (Cu(II)–Aβ42); “chopped fibrils and amorphous assemblies” at Aβ42 (Zn(II)–Aβ42); “shorter and thinner fibrils” on Aβ42 (metal-free Aβ42).

Consider `O=c1cc(-c2ccccc2)oc2c(Cl)c(O)c(O)c(O)c12` [compound 5, 8-chlorobaicalein], for which the viability at 24 h, 100 μM in “MTT cytotoxicity assay” (setting [1]) is around 60%. The “morphology of resultant aggregates (TEM)” value was “A mixture of amorphous and small fibrillary aggregates” at Aβ42 (Cu(II)–Aβ42); “both amorphous and fibrillary Zn(II)–Aβ42 aggregates” on Aβ42 (Zn(II)–Aβ42); “smaller fibrils and less structured aggregates” on Aβ42 (metal-free Aβ42). Besides, the “MW distribution … (gel/western blot)” value at Aβ42 (setting [2]) is recorded as “smearing bands at ca. 25–240 kDa”; at Aβ42 (metal-free Aβ42 25 μM, 37 °C), “discernably reduced the signal intensity of the bands”.

Turning to `O=c1c(-c2ccc(O)c(O)c2)coc2cc(O)c(O)c(O)c12` [compound 6, 3-(3,4-dihydroxyphenyl)-5,6,7-trihydroxy-4H-chromen-4-one], the “MW distribution … (gel/western blot)” value was “smearing bands from ca. 20–240 kDa were noticeably detected” at Aβ42 (setting [4]); “smearing bands from ca. 20–240 kDa were noticeably detected” at Aβ42 (setting [2]); “reduced at ca. 4–20 kDa and above ca. 100 kDa” on Aβ42 (metal-free Aβ42 25 μM, 37 °C). The “morphology of resultant aggregates (TEM)” value on Aβ42 (Cu(II)–Aβ42) is “chopped fibrils”; at Aβ42 (Zn(II)–Aβ42), “a mixture of amorphous and fibrillary aggregates”; on Aβ42 (metal-free Aβ42), “shorter and thinner fibrils”.
